Patent US20230303549A1, “SUBSTITUTED HETEROARYLOXYPYRIDINES, THE SALTS THEREOF AND THEIR USE AS HERBICIDAL AGENTS” (Bayer Aktiengesellschaft, priority 2020, published 2023)

Experiments:
Format in all cases: in vivo
[1] = test system: Abutilon theophrasti (ABUTH); assay: Post-emergence herbicidal efficacy at 320 g/ha, greenhouse pot test; details: visual rating vs untreated control after about 3 weeks
Description: (§1) Seeds of mono- and dicotyledonous weed plants were placed in plastic pots in sandy loam soil (doubly sown with in each case one species of mono- or dicotyledonous weed plants per pot), covered with soil and cultivated in a greenhouse under controlled growth conditions. 2 to 3 weeks after sowing, the test plants were treated at the one-leaf stage. The compounds of the invention, formulated in the form of wettable powders (WP) or as emulsion concentrates (EC), were applied onto the green parts of the plants as aqueous suspension or emulsion with addition of 0.5% additive at a water application rate of 600 liters per hectare (converted). After the test plants had been kept in the greenhouse under optimum growth conditions for about 3 weeks, the activity of the preparations was rated visually in comparison to untreated controls. For example, 100% activity=the plants have died, 0% activity=like control plants. Tables […] 11 below show the effects of selected compounds of the general formula (I) according to Table 1 on various harmful plants and an application rate corresponding to 320 g/ha, which were obtained by the experimental procedure mentioned above.

[2] = test system: Alopecurus myosuroides (ALOMY); assay: as above; details: visual rating vs untreated control after about 3 weeks
Description: as §1

[3] = test system: Amaranthus retroflexus (AMARE); assay: as above; details: visual rating vs untreated control after about 3 weeks
Description: as §1

Bassia scoparia (KCHSC) [4] = assay: as above; details: visual rating vs untreated control after about 3 weeks
Description: as §1

Stellaria media (STEME) [5] = assay: as above; details: visual rating vs untreated control after about 3 weeks
Description: as §1

Veronica persica (VERPE) [6] = assay: as above
Description: as §1

[7] = test system: Amaranthus retroflexus (AMARE); assay: Post-emergence herbicidal efficacy at 80 g/ha, greenhouse pot test; details: visual rating vs untreated control after about 3 weeks
Description: (§2) Seeds of monocotyledonous and dicotyledonous weeds and crop plants were placed in sandy loam in plastic or organic planting pots, covered with soil and cultivated in a greenhouse under controlled growth conditions. 2 to 3 weeks after sowing, the test plants were treated at the one-leaf stage. The compounds of the invention, formulated in the form of wettable powders (WP) or as emulsion concentrates (EC), were then sprayed onto the green parts of the plants as aqueous suspension or emulsion with addition of 0.5% additive at a water application rate of 600 l/ha (converted). After the test plants had been kept in the greenhouse under optimum growth conditions for about 3 weeks, the activity of the preparations was rated visually in comparison to untreated controls. For example, 100% activity=the plants have died, 0% activity=like control plants. Tables B1 to B6 below show the effects of selected compounds of the general formula (I) according to Table 1 on various harmful plants and an application rate corresponding to 80 g/ha, which were obtained by the experimental procedure mentioned above.

Viola tricolor (VIOTR) [8] = assay: as above; details: visual rating vs untreated control after about 3 weeks
Description: as §2

[9] = test system: Abutilon theophrasti (ABUTH); assay: Pre-emergence herbicide efficacy at 320 g/ha, greenhouse pot test; details: visual scoring vs untreated control after about 3 weeks
Excerpt: (§3) Seeds of mono- and dicotyledonous weed plants were placed in plastic pots in sandy loam soil (doubly sown with in each case one species of mono- or dicotyledonous weed plants per pot) and covered with soil. The compounds of the invention, formulated in the form of wettable powders (WP) or as emulsion concentrates (EC), were then applied onto the surface of the covering soil as aqueous suspension or emulsion with addition of 0.5% additive at a water application rate of 600 liters per hectare (converted). After the treatment, the pots were placed in a greenhouse and kept under good growth conditions for the test plants. After about 3 weeks, the effect of the preparations was scored visually in comparison with untreated controls as percentages. For example, 100% activity=the plants have died, 0% activity=like control plants. Tables C1 to C12 below show the effects of selected compounds of the general formula (I) according to Table 1 on various harmful plants and an application rate corresponding to 320 g/ha, which were obtained by the experimental procedure mentioned above.

[10] = test system: Alopecurus myosuroides (ALOMY); assay: as above; details: visual scoring vs untreated control after about 3 weeks
Excerpt: as §3

[11] = test system: Amaranthus retroflexus (AMARE); assay: as above; details: visual scoring vs untreated control after about 3 weeks
Excerpt: as §3

Bassia scoparia (KCHSC) [12] = assay: as above
Excerpt: as §3

[13] = test system: Digitaria sanguinalis (DIGSA); assay: as above; details: visual scoring vs untreated control after about 3 weeks
Excerpt: as §3

[14] = test system: Matricaria inodora (MATIN); assay: as above; details: visual scoring vs untreated control after about 3 weeks
Excerpt: as §3

Poa annua (POAAN) [15] = assay: as above; details: visual scoring vs untreated control after about 3 weeks
Excerpt: as §3

Setaria viridis (SETVI) [16] = assay: as above; details: visual scoring vs untreated control after about 3 weeks
Excerpt: as §3

Stellaria media (STEME) [17] = assay: as above; details: visual scoring vs untreated control after about 3 weeks
Excerpt: as §3

Veronica persica (VERPE) [18] = assay: as above; details: visual scoring vs untreated control after about 3 weeks
Excerpt: as §3

[19] = test system: Abutilon theophrasti (ABUTH); assay: Pre-emergence herbicide efficacy at 80 g/ha, greenhouse pot test; details: visual scoring vs untreated control after about 3 weeks
Excerpt: (§4) Seeds of monocotyledonous and dicotyledonous weed plants and crop plants were placed in plastic or organic planting pots and covered with soil. The compounds of the invention, formulated in the form of wettable powders (WP) or as emulsion concentrates (EC), were then applied to the surface of the covering soil as aqueous suspension or emulsion with addition of 0.5% additive at a water application rate of […] (converted). After the treatment, the pots were placed in a greenhouse and kept under good growth conditions for the test plants. After about 3 weeks, the effect of the preparations was scored visually in comparison with untreated controls as percentages. For example, 100% activity=the plants have died, 0% activity=like control plants. Tables D1 to D12 below show the effects of selected compounds of the general formula (I) according to Table 1 on various harmful plants and an application rate corresponding to 80 g/ha, which were obtained by the experimental procedure mentioned above.

[20] = test system: Alopecurus myosuroides (ALOMY); assay: as above; details: visual scoring vs untreated control after about 3 weeks
Excerpt: as §4

[21] = test system: Amaranthus retroflexus (AMARE); assay: as above; details: visual scoring vs untreated control after about 3 weeks
Excerpt: as §4

[22] = test system: Polygonum convolvulus (POLCO); assay: as above; details: visual scoring vs untreated control after about 3 weeks
Excerpt: as §4

Setaria viridis (SETVI) [23] = assay: as above; details: visual scoring vs untreated control after about 3 weeks
Excerpt: as §4

Veronica persica (VERPE) [24] = assay: as above; details: visual scoring vs untreated control after about 3 weeks
Excerpt: as §4

Viola tricolor (VIOTR) [25] = assay: as above; details: visual scoring vs untreated control after about 3 weeks
Excerpt: as §4

Poa annua (POAAN) [26] = assay: Post-emergence herbicidal efficacy at 320 g/ha, greenhouse pot test; details: visual rating vs untreated control after about 3 weeks
Description: as §1

Veronica persica (VERPE) [27] = assay: Post-emergence herbicidal efficacy at 80 g/ha, greenhouse pot test; details: visual rating vs untreated control after about 3 weeks
Description: as §2

[28] = test system: Polygonum convolvulus (POLCO); assay: as above; details: visual rating vs untreated control after about 3 weeks
Description: as §2

[29] = test system: Matricaria inodora (MATIN); assay: Pre-emergence herbicide efficacy at 80 g/ha, greenhouse pot test; details: visual scoring vs untreated control after about 3 weeks
Excerpt: as §4

[30] = 320 g/ha, visual rating vs untreated control after about 3 weeks
[31] = 320 g/ha, visual scoring vs untreated control after about 3 weeks
[32] = dosage 1280 g/ha in Table C6, visual scoring after about 3 weeks

SMILES	Post-emergence efficacy against Abutilon theophrasti (ABUTH) [1] [%]	Post-emergence efficacy against Alopecurus myosuroides (ALOMY) [2] [%]	Post-emergence efficacy against Amaranthus retroflexus (AMARE) [3] [%]	Post-emergence efficacy against Bassia scoparia (KCHSC) (Bassia scoparia (KCHSC) [4]) [%]	Post-emergence action against Stellaria media (STEME) (Stellaria media (STEME) [5]) [%]	Post-emergence efficacy against Veronica persica (VERPE) (Veronica persica (VERPE) [6]; [30]) [%]	Post-emergence efficacy against Amaranthus retroflexus (AMARE) [7] [%]	Post-emergence efficacy against Viola tricolor (VIOTR) (Viola tricolor (VIOTR) [8]) [%]	Pre-emergence efficacy against Abutilon theophrasti (ABUTH) [9] [%]	Pre-emergence efficacy against Amaranthus retroflexus (AMARE) [11] [%]	Pre-emergence efficacy against Matricaria inodora (MATIN) [14] [%]	Pre-emergence efficacy against Poa annua (POAAN) (Poa annua (POAAN) [15]) [%]	Pre-emergence efficacy against Setaria viridis (SETVI) (Setaria viridis (SETVI) [16]) [%]	Pre-emergence efficacy against Stellaria media (STEME) (Stellaria media (STEME) [17]) [%]	Pre-emergence efficacy against Veronica persica (VERPE) (Veronica persica (VERPE) [18]) [%]	Pre-emergence efficacy against Abutilon theophrasti (ABUTH) [19] [%]	Pre-emergence efficacy against Alopecurus myosuroides (ALOMY) [20] [%]	Pre-emergence efficacy against Amaranthus retroflexus (AMARE) [21] [%]	Pre-emergence efficacy against Veronica persica (VERPE) (Veronica persica (VERPE) [24]) [%]	Pre-emergence efficacy against Viola tricolor (VIOTR) (Viola tricolor (VIOTR) [25]) [%]	further results
Cc1cc(C)c(-c2cc(C(F)(F)Cl)no2)c(Oc2ncc(Cl)cn2)n1 [Example I-8]	90	100	100	90	90	100	100	90	100	100	100	100	90	100	100	100	90	100	80	90	Pre-emergence efficacy against Alopecurus myosuroides (ALOMY) [10]: 100%; Pre-emergence efficacy against Bassia scoparia (KCHSC) (Bassia scoparia (KCHSC) [12]; [31]): 100%; Pre-emergence efficacy against Digitaria sanguinalis (DIGSA) [13]: 100%; Pre-emergence efficacy against Polygonum convolvulus (POLCO) [22]: 90%; Pre-emergence efficacy against Setaria viridis (SETVI) (Setaria viridis (SETVI) [23]): 100%
Cc1cc(C)c(-c2cc(C(F)F)no2)c(Oc2cnc(Cl)cn2)n1 [Example I-11]	–	90	100	90	100	100	–	–	90	100	100	100	90	100	100	–	–	–	–	–	Pre-emergence efficacy against Alopecurus myosuroides (ALOMY) [10]: 100%; Pre-emergence efficacy against Bassia scoparia (KCHSC) (Bassia scoparia (KCHSC) [12]; [31]): 90%
Cc1cc(C)c(-c2cc(C(F)F)no2)c(Oc2ncc(Cl)cc2F)n1 [Example I-14]	90	100	90	100	100	–	100	100	100	100	100	100	100	100	–	80	–	100	–	100	Post-emergence efficacy against Veronica persica (VERPE) (Veronica persica (VERPE) [6]; dosage printed 80 g/ha in Table A9, visual rating after about 3 weeks): 100%; Pre-emergence efficacy against Bassia scoparia (KCHSC) (Bassia scoparia (KCHSC) [12]; [32]): 100%
Cc1cc(C)c(-c2cc(C(F)F)no2)c(Oc2ccc(C#N)cn2)n1 [Example I-292]	90	–	100	90	100	100	90	90	90	100	100	–	90	100	90	–	80	100	90	90	Post-emergence efficacy against Poa annua (POAAN) (Poa annua (POAAN) [26]): 100%; Post-emergence efficacy against Veronica persica (VERPE) (Veronica persica (VERPE) [27]): 90%; Pre-emergence efficacy against Bassia scoparia (KCHSC) (Bassia scoparia (KCHSC) [12]; [32]): 100%
Cc1cc(C)c(-c2cc(C(F)F)no2)c(Oc2ccc(F)cn2)n1 [Example I-293]	–	–	–	–	–	–	100	–	–	–	–	–	–	–	–	90	90	100	80	90	Post-emergence efficacy against Polygonum convolvulus (POLCO) [28]: 100%; Pre-emergence efficacy against Matricaria inodora (MATIN) [29]: 100%; Pre-emergence efficacy against Polygonum convolvulus (POLCO) [22]: 80%; Pre-emergence efficacy against Setaria viridis (SETVI) (Setaria viridis (SETVI) [23]): 100%
